Test results as given in patent publication US20230203043A1, “NOVEL IMIDAZOPYRAZINE DERIVATIVES” (Hoffmann-La Roche Inc., priority 2020, published 2023).
Where a name gives a salt, the structure may show the parent alone.

Each compound was assayed on Acinetobacter baumannii ATCC17961 (assay: Antimicrobial susceptibility testing: 90% growth inhibitory concentration (IC90) determination in Iso-Sensitest broth, OD600 growth). Conditions: Acinetobacter baumannii, ATCC17961, 16 h, read-out: A. baumannii ATCC 17961 IC90 (uM), strain ATCC 17961, OD600 growth over 16 h.
Type: cell-based
How it was run: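 OD600 read every 20 min for 16 h at 35±2° C; inhibition taken in log phase to derive IC90. Twofold, 10-point dilutions (e.g. 50–0.097 μM final), inoculum ~5×10^(5) CFU/ml.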
In the case of CCc1cc(Nc2nccn3c(-c4c[nH]nc4C(F)(F)F)cnc23)ccc1C(=O)NC1CC2(CNC2)C1 [Example 514, 2-ethyl-N-(2-azaspiro[3.3]heptan-6-yl)-4-((3-(3-(trifluoromethyl)-1H-pyrazol-4-yl)imidazo[1,2-a]pyrazin-8-yl)amino)benzamide formate], the IC90 is reported as 0.803 µM.
With CCc1cc(Nc2nccn3c(-c4c[nH]nc4C(F)(F)F)cnc23)ccc1C(=O)NC1CNC1 [Example 515, N-(azetidin-3-yl)-2-ethyl-4-((3-(3-(trifluoromethyl)-1H-pyrazol-4-yl)imidazo[1,2-a]pyrazin-8-yl)amino)benzamide formate] the IC90 was 0.49 µM.
Compound CCc1cc(Nc2nccn3c(-c4cn(CC#N)nc4C(F)(F)F)cnc23)ccc1C(=O)NCC(=O)NCC1(O)CCNCC1 [Example 525, 4-[[3-[1-(cyanomethyl)-3-(trifluoromethyl)pyrazol-4-yl]imidazo[1,2-a]pyrazin-8-yl]amino]-2-ethyl-N-[2-[(4-hydroxy-4-piperidyl)methylamino]-2-oxo-ethyl]benzamide formate] has an IC90 of 0.593 µM.
For CCc1cc(Nc2nccn3c(-c4cn(CC(F)F)nc4C(F)(F)F)cnc23)ccc1C(=O)NCC(=O)N1CC2(CNC2)C1 [Example 526, N-[2-(2,6-diazaspiro[3.3]heptan-2-yl)-2-oxo-ethyl]-4-[[3-[1-(2,2-difluoroethyl)-3-(trifluoromethyl)pyrazol-4-yl]imidazo[1,2-a]pyrazin-8-yl]amino]-2-ethyl-benzamide formate], the IC90 was 0.306 µM.
Work on CCc1cc(Nc2nccn3c(-c4cn(CC(F)F)nc4C(F)(F)F)cnc23)ccc1C(=O)NCC(=O)N1CCC(CN)C1 (stereo not drawn) [Example 527, N-[2-[3-(aminomethyl)pyrrolidin-1-yl]-2-oxo-ethyl]-4-[[3-[1-(2,2-difluoroethyl)-3-(trifluoromethyl)pyrazol-4-yl]imidazo[1,2-a]pyrazin-8-yl]amino]-2-ethyl-benzamide formate] yielded an IC90 of 0.306 µM.
Work on CCc1cc(Nc2nccn3c(-c4cn(CC(F)F)nc4C(F)(F)F)cnc23)ccc1C(=O)NCC(=O)N1CCCC1CN (stereo not drawn) [Example 528, N-[2-[2-(aminomethyl)pyrrolidin-1-yl]-2-oxo-ethyl]-4-[[3-[1-(2,2-difluoroethyl)-3-(trifluoromethyl)pyrazol-4-yl]imidazo[1,2-a]pyrazin-8-yl]amino]-2-ethyl-benzamide formate] yielded an IC90 of 0.243 µM.
CCc1cc(Nc2nccn3c(-c4cn(CC(F)F)nc4C(F)(F)F)cnc23)ccc1C(=O)NCC(=O)NC1C2CNCC21 (stereo not drawn) [Example 529, N-[2-(3-azabicyclo[3.1.0]hexan-6-ylamino)-2-oxo-ethyl]-4-[[3-[1-(2,2-difluoroethyl)-3-(trifluoromethyl)pyrazol-4-yl]imidazo[1,2-a]pyrazin-8-yl]amino]-2-ethyl-benzamide formate] showed an IC90 of 0.248 µM.
CCc1cc(Nc2nccn3c(-c4cn(CC(F)F)nc4C(F)(F)F)cnc23)ccc1C(=O)NCC(=O)NCC1CCN1 (stereo not drawn) [Example 530, N-[2-(azetidin-2-ylmethylamino)-2-oxo-ethyl]-4-[[3-[1-(2,2-difluoroethyl)-3-(trifluoromethyl)pyrazol-4-yl]imidazo[1,2-a]pyrazin-8-yl]amino]-2-ethyl-benzamide formate] was tested, and the IC90 was 0.327 µM.
Work on CCc1cc(Nc2nccn3c(-c4c[nH]nc4C(F)(F)F)cnc23)ccc1C(=O)NCCCNC(=O)[C@@H]1CC[C@H](N)C1 [Example 534, N-(3-((1R,3S)-3-aminocyclopentane-1-carboxamido)propyl)-2-ethyl-4-((3-(3-(trifluoromethyl)-1H-pyrazol-4-yl)imidazo[1,2-a]pyrazin-8-yl)amino)benzamide formate] yielded an IC90 of 0.251 µM.
CCc1cc(Nc2nccn3c(-c4c[nH]nc4C(F)(F)F)cnc23)ccc1C(=O)NCCCNC(=O)[C@H]1CC[C@@H](N)C1 [Example 535, N-(3-((1S,3R)-3-aminocyclopentane-1-carboxamido)propyl)-2-ethyl-4-((3-(3-(trifluoromethyl)-1H-pyrazol-4-yl)imidazo[1,2-a]pyrazin-8-yl)amino)benzamide formate] gave an IC90 of 0.247 µM.
With CCc1cc(Nc2nccn3c(-c4cn(CC(F)F)nc4C(F)(F)F)cnc23)ccc1C(=O)NCCNC(=O)CCN [Example 536, N-(2-(3-aminopropanamido)ethyl)-4-((3-(1-(2,2-difluoroethyl)-3-(trifluoromethyl)-1H-pyrazol-4-yl)imidazo[1,2-a]pyrazin-8-yl)amino)-2-ethylbenzamide formate] the IC90 was 0.145 µM.
For CCc1cc(Nc2nccn3c(-c4cn(CC(F)F)nc4C(F)(F)F)cnc23)ccc1C(=O)NCCNC(=O)CCCN [Example 537, N-(2-(4-aminobutanamido)ethyl)-4-((3-(1-(2,2-difluoroethyl)-3-(trifluoromethyl)-1H-pyrazol-4-yl)imidazo[1,2-a]pyrazin-8-yl)amino)-2-ethylbenzamide formate], the IC90 was 0.163 µM.

Same assay, conditions: Acinetobacter baumannii, ATCC17961, 16 h, strain ATCC 17961, OD600 growth over 16 h, read-out: A. baumannii ATCC 17961 IC90
O=C(c1ccc(Nc2nccn3c(-c4c[nH]nc4C(F)(F)F)cnc23)cc1Cl)N1CCN(C(=O)[C@H]2[C@@H]3CNC[C@@H]32)CC1 [Example 516, (4-((1R,5S,6r)-3-azabicyclo[3.1.0]hexane-6-earbonyl)piperazin-1-yl) (2-chloro-4-((3-(3-(trifluoromethyl)-1H-pyrazol-4-yl)imidazo[1,2-a]pyrazin-8-yl)amino)phenyl)methanone formate] was tested, and the IC90 was 0.14 µM.
In the case of CCc1cc(Nc2nccn3c(-c4c[nH]nc4C(F)(F)F)cnc23)ccc1C(=O)NCCNC(=O)N1CC[C@@H](N)C1 [Example 517, (R)-3-amino-N-(2-(2-ethyl-4-((3-(3-(trifluoromethyl)-1H-pyrazol-4-yl)imidazo[1,2-a]pyrazin-8-yl)amino)benzamido)ethyl) pyrrolidine-1-carboxamide formate], the IC90 is reported as 0.369 µM.
Cc1cc(Nc2nccn3c(-c4c[nH]nc4C(F)(F)F)cnc23)ccc1S(C)(=O)=NCCCN (stereo not drawn) [Example 518, ((3-Aminopropyl)imino)(methyl)(2-methyl-4-((3-(3-(trifluoromethyl)-1H-pyrazol-4-yl)imidazo[1,2-α]pyrazin-8-yl)amino)phenyl)-λ^6-sulfanone] was tested, and the IC90 was 0.935 µM.
Work on O=C(c1ccc(Nc2nccn3c(-c4cn(CC(F)F)nc4C(F)(F)F)cnc23)cc1Cl)N1CCN(C(=O)[C@H]2[C@@H]3CNC[C@@H]32)CC1 [Example 519, (4-((1R,5S,6r)-3-azabicyclo[3.1.0]hexane-6-carbonyl)piperazin-1-yl)(2-chloro-4-((3-(1-(2,2-difluoroethyl)-3-(trifluoromethyl)-1H-pyrazol-4-yl)imidazo[1,2-a]pyrazin-8-yl)amino)phenyl) methanone formate] yielded an IC90 of 0.147 µM.
CCc1cc(Nc2nccn3c(-c4cn(CC#N)nc4C(F)(F)F)cnc23)ccc1C(=O)NCCNC(=O)N1CC[C@@H](N)C1 [Example 520, (R)-3-amino-N-(2-(4-((3-(1-(cyanomethyl)-3-(trifluoromethyl)-1H-pyrazol-4-yl)imidazo [1,2-a]pyrazin-8-yl)amino)-2-ethylbenzamido)ethyl) pyrrolidine-1-carboxamide formate] gave an IC90 of 0.27 µM.
With CCc1cc(Nc2nccn3c(-c4cn(CC#N)nc4C(F)(F)F)cnc23)ccc1C(=O)NCC(=O)NCC1CNC1 [Example 521, N-[2-(azetidin-3-ylmethylamino)-2-oxo-ethyl]-4-[[3-[1-(cyanomethyl)-3-(trifluoromethyl)pyrazol-4-yl]imidazo[1,2-a]pyrazin-8-yl]amino]-2-ethyl-benzamide formate] the IC90 was 0.38 µM.
CCc1cc(Nc2nccn3c(-c4cn(CC#N)nc4C(F)(F)F)cnc23)ccc1C(=O)NCC(=O)NCC1CCCN1 (stereo not drawn) [Example 522, 4-[[3-[1-(cyanomethyl)-3-(trifluoromethyl)pyrazol-4-yl]imidazo[1,2-a]pyrazin-8-yl]amino]-2-ethyl-N-[2-oxo-2-(pyrrolidin-2-ylmethylamino)ethyl] benzamide formate] was tested, and the IC90 was 0.402 µM.
Compound CCc1cc(Nc2nccn3c(-c4cn(CC#N)nc4C(F)(F)F)cnc23)ccc1C(=O)NCC(=O)NCC1CCNC1 (stereo not drawn) [Example 523, 4-[[3-[1-(cyanomethyl)-3-(trifluoromethyl)pyrazol-4-yl]imidazo[1,2-a]pyrazin-8-yl]amino]-2-ethyl-N-[2-oxo-2-(pyrrolidin-3-ylmethylamino)ethyl] benzamide formate] has an IC90 of 0.313 µM.
With CCc1cc(Nc2nccn3c(-c4cn(CC#N)nc4C(F)(F)F)cnc23)ccc1C(=O)NCC(=O)NCC1CCNCC1 [Example 524, 4-[[3-[1-(cyanomethyl)-3-(trifluoromethyl)pyrazol-4-yl]imidazo[1,2-a]pyrazin-8-yl]amino]-2-ethyl-N-[2-oxo-2-(4-piperidylmethylamino)ethyl] benzamide formate] the IC90 was 0.395 µM.
Compound CCc1cc(Nc2nccn3c(-c4c[nH]nc4C(F)(F)F)cnc23)ccc1C(=O)NCCCNC(=O)[C@H]1C[C@@H](N)C1 [Example 531, N-(3-((1s,3s)-3-aminocyclobutane-1-carboxamido)propyl)-2-ethyl-4-((3-(3-(trifluoromethyl)-1H-pyrazol-4-yl)imidazo [1,2-a]pyrazin-8-yl)amino)benzamide formate] has an IC90 of 0.299 µM.
CCc1cc(Nc2nccn3c(-c4c[nH]nc4C(F)(F)F)cnc23)ccc1C(=O)NCCCNC(=O)[C@H]1C[C@H](N)C1 [Example 532, N-(3-((1r,3r)-3-aminocyclobutane-1-carboxamido)propyl)-2-ethyl-4-((3-(3-(trifluoromethyl)-1H-pyrazol-4-yl)imidazo [1,2-a]pyrazin-8-yl)amino)benzamide formate] showed an IC90 of 0.245 µM.
With CCc1cc(Nc2nccn3c(-c4cn(CC(F)F)nc4C(F)(F)F)cnc23)ccc1C(=O)NCC(=O)N1CC2CC1CN2 (stereo not drawn) [Example 538, N-2-(2,5-diazabicyclo[2.2.1]heptan-2-yl)-2-oxo-ethyl]-4-[[3-[1-(2,2-difluoroethyl)-3-(trifluoromethyl)pyrazol-4-yl]imidazo[1,2-a]pyrazin-8-yl]amino]-2-ethyl-benzamide formate] the IC90 was 0.261 µM.
